Assay results: PubChem BioAssay (NCI)
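Briefly, cells in 96-well plates were exposed to five compound concentrations for 48 h, and endpoints were estimated by linear interpolation. GI50 marks 50% less growth. TGI: concentration producing complete growth inhibition.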

Experiments:
Assay in all cases: NCI-60 cell line screen, 48 h
HS 578T breast = tested on: HS 578T breast
SF-539 CNS = tested on: SF-539 CNS
SF-268 CNS = tested on: SF-268 CNS
NCI/ADR-RES ovarian = tested on: NCI/ADR-RES ovarian
SN12C renal = tested on: SN12C renal
KM12 colon = tested on: KM12 colon
TK-10 renal = tested on: TK-10 renal
SR leukemia = tested on: SR leukemia
OVCAR-4 ovarian = tested on: OVCAR-4 ovarian
K-562 leukemia = tested on: K-562 leukemia

SMILES	TGI (HS 578T breast) [µM]	TGI (SF-539 CNS) [µM]	TGI (SF-268 CNS) [µM]	TGI (NCI/ADR-RES ovarian) [µM]	TGI (SN12C renal) [µM]	TGI (KM12 colon) [µM]	TGI (TK-10 renal) [µM]	TGI (SR leukemia) [µM]	TGI (OVCAR-4 ovarian) [µM]	TGI (K-562 leukemia) [µM]	GI50 (OVCAR-4 ovarian) [µM]	GI50 (SF-539 CNS) [µM]	GI50 (SF-268 CNS) [µM]	GI50 (NCI/ADR-RES ovarian) [µM]	GI50 (SN12C renal) [µM]	GI50 (KM12 colon) [µM]	GI50 (TK-10 renal) [µM]	GI50 (SR leukemia) [µM]	GI50 (K-562 leukemia) [µM]
Cc1cc2ccc(N)nc2[nH]c1=O	> 100	> 100	> 100	> 100	> 100	> 100	> 100	> 100											
CCCCC[C@H]1CCCCCCCCCC(=O)OC2C(O[C@@H]3OC(C)[C@H](OC(=O)[C@@H](C)CC)C(O[C@@H]4OC(C)[C@H](O)C(O)[C@@H]4O)[C@@H]3OC(=O)[C@H](C)CC)[C@H](OC3C(O)[C@@H](O)C(C)O[C@H]3O1)OC(CO)[C@H]2O (stereo not given in full)	35.8		33.4	36.9	31.3	35.8	34.3	34.7	36.3	32.9									
CCCCCCCCCCCCO[P+](=O)OCCCCCCCCCCCC	> 100	> 100	> 100	> 100	> 100	72.2	99.2		> 100	> 100									
C=C1CC2[C@H](C)C(=O)CCC2(C)C2=C1C1CCC(C(C)CCC(=C)C(C)C(=O)O)C1(C)CC2=O (stereo not given in full)	> 100	> 100	> 100	> 100	> 100	> 100	> 100		> 100	28.7									
NC(=O)Oc1ccccc1	> 100		> 100	> 100	> 100	> 100	> 100	> 100	> 100	> 100									
Cc1ccccc1NC(=O)Cc1csc(N=Nc2c(O)[nH]c3ccccc23)n1	84.9	32.3	> 100	> 100	> 100	> 100	> 100		62.7	> 100									
S=c1nc[nH]c2c1ncn2C1CCCO1 (stereo not given)		> 100	> 100		> 100	> 100	> 100		> 100	> 100									
Cc1c(O)c(=O)ccn1CCc1ccc(O)cc1	69.6	62.5	33.3	59.5		> 100	> 100	> 100	76.2	> 100									
Cc1ccc(NC(=O)CC(=O)n2nc(C)c(N=Nc3cccc(C)c3)c2C)cc1	> 100	> 100	> 100	> 100	> 100	> 100	> 100	> 100	> 100										
CN(C)CCCNC(=O)c1cn2c(ccc3sc4ccccc4c(=O)c32)n1	36.1	33.1	9.96	8.37	9.57	37.6	30.9	30	28.1										
CC(NC(=O)C(Cc1ccc(OC(=O)c2ccccc2)cc1)NC(=O)OC(C)(C)C)C(=O)NCC(=O)NC(Cc1ccccc1)C(=O)NN (stereo not given)	> 100	> 100	> 100	> 100		> 100	> 100	56.9	> 100	76.4									
CCOC(=O)C(C(=O)COC(C)(C)C)[C@@H]1C=C[C@H](OC(C)=O)C1 (stereo not given in full)	> 100	> 100	> 100	> 100	> 100	> 100			> 100	> 100									
Cc1ccc(S(=O)(=O)Nn2c(O)c(C#N)c(-c3ccc([N+](=O)[O-])cc3)c(C#N)c2=O)cc1		> 100	> 100	> 100	> 100	> 100	> 100		> 100	> 100									
C=C(C)[C@@H]1CC[C@]2(C(=O)NC(C)=O)CC[C@]3(C)[C@H](CC[C@@H]4[C@@]5(C)CCCNC(C)(C)[C@@H]5CC[C@]43C)[C@@H]12		2.84	3.25	3.68	2.79	2.9	3.38	3.07	3.23	3.18	1.51	1.51	1.69	1.83	1.47	1.51	1.79	0.839	1.12
Cc1ccc(S[C@@H](C)[C@@](O)(C(N)=O)c2ccccc2)cc1	> 100	60.3	> 100	49.5	> 100	> 100	> 100		46.3	44.5									
CC/C(=C\c1ccc(OC)cc1)c1ccc(OC)cc1	> 100	> 100	> 100	> 100	> 100	> 100	> 100		> 100	> 100									
O=C(N/N=C\c1ccc([N+](=O)[O-])s1)c1ccncc1	50.4	43.3	55	> 91.1	26.8	26.8	> 51.7	12.2	30.2										
NS(=O)(=O)c1ccc(N=Nc2ccc(O)c(C(=O)O)c2)cc1	> 100		> 100	> 100	> 100	> 100	> 100		> 100	> 100									
CCOc1cc2c(cc1O)C(N)C[C@@H]1[C@@H]2CC[C@]2(C)[C@@H](O)CC[C@@H]12 (stereo not given in full)	> 100		> 100	> 100	> 100	> 100	> 100	63	> 100	73.2					58.6				
CCn1c2ccccc2c2cc(Nc3cc(C)[nH]c(=O)n3)ccc21		> 100	> 100	> 100	> 100	> 100	> 100		> 100	> 100									
O=C1C(c2c(O)[nH]c3ccc(S(=O)(=O)NCCO)cc23)=Nc2ccccc21	> 100		51	> 100	> 100	2.2	42.4	21.6	14.5	69.4									
O=C(O)c1ccc(N/C(=C(/C(Cl)=C(Cl)Cl)[N+](=O)[O-])n2nnc3ccccc32)cc1	> 100	> 100	> 100	> 100	> 100	> 100			> 100	> 100									
